The results in this text go back to paper PMC7719162, “Positioning of an unprecedented spiro[5.5]undeca ring system into kinase inhibitor space” (Scientific Reports, 2020).

Like-named read-outs stand apart in the source and are kept apart here.

In one data set the target is GSK3β (Homo sapiens, UniProt P49841). As to the kind of experiment: GSK3β radiolabelled kinase assay (% residual activity, IC50, ATP competition). The class given is biochemical. As to conditions: for remaining activity at 10 µM: at 10 μM compound.
Chain of GSK3β (P49841 whole entry): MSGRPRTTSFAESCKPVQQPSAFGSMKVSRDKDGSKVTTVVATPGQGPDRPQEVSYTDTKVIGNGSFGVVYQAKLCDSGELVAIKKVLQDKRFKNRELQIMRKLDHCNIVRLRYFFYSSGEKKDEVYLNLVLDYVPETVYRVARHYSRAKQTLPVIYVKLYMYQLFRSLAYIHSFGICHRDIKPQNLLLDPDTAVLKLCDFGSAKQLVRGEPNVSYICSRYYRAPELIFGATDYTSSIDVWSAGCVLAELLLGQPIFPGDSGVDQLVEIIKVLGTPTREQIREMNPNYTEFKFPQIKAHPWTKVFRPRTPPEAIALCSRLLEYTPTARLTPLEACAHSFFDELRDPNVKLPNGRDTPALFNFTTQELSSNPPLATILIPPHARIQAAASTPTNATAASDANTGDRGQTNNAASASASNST
In data set [1] the test system is NO production in LPS-activated BV-2 cells. The data set can be described thus: NO production assay (Griess) in LPS-activated BV-2 cells. As to conditions: Mus musculus, read-out: NO Inhibition IC50. The class given is cell-based, murine. The procedure: (§1) 3-(4,5-dimethylthiazol-2-yl)-2,5-diphenyl-tetrazolium bromide (MTT) assay was performed to evaluate the cytotoxicity of the samples to the microglia. BV2 cells at the density of 4 × 10^4 cells /well were seeded in the 96 well plate and incubated for 24 h. Seeded cells were pre-treated with different concentration of the samples, and LPS (100 ng/ml) activation was performed after 30 min of compound treatment. Treated plate were incubated for 24 h in the incubator and nitric oxide assay and cell viability assay was performed. Treated cell’s conditioned medium was used to evaluate the NO assay, and the attached cells were used to evaluate the cell viability assay. 50 µL of conditioned medium (CM) from treated cells were transferred to a new 96 well plate for NO assay. This CM was mixed with the equal volume of the mixture of Gries reagent ((1% sulfanilamide and 0.1% N-1-napthylethylenediamine dihydrochloride). NaNO2 was used as standard and the colorimetric change were evidenced by measuring its OD at 540 nm in a microplate reader. The cells in the plate were incubated for 1 h with MTT solution making it the final concentration of […]. Blue stained cells were incubated with 200 ul of DMSO and the solution get changed to purple/formazan color and it was observed by measuring the absorbance at 570 nm in a microplate reader.NG-mono-methyl-L-arginine (L-NMMA), a well-known nitric oxide synthase (NOS) inhibitor, was used as a positive control.

A short description of the next data set: MTT cell viability assay. The class given is cell-based, murine. As to conditions: mouse, BV-2 microglia cells (LPS-activated), mean ± SD; for viability at 24 h, 1 µM: 1 μM compound; for viability at 24 h, 5 µM: 5 μM compound, % of LPS. The procedure: as §1
The target of another data set is T1, EIF2AK1 (Homo sapiens, UniProt Q9BQI3).
T1 construct: purchased Reaction Biology Corp
T1 sequence (Q9BQI3 whole entry): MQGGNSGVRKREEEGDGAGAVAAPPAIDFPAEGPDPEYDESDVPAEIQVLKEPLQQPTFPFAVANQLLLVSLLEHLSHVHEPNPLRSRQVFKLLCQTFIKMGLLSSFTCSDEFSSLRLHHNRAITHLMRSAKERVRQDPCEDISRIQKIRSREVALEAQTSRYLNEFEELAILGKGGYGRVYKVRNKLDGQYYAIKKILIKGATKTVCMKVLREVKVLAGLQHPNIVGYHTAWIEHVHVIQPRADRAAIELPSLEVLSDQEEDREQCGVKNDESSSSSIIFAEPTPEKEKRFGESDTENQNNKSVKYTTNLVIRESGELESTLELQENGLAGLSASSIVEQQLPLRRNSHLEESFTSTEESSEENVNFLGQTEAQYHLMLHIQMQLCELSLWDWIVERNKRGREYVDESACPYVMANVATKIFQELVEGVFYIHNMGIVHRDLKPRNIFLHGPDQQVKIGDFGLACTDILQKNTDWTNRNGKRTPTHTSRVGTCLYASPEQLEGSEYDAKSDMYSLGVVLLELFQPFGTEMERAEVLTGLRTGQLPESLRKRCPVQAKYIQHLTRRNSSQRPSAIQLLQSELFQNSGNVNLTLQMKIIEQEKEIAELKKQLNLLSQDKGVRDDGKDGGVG
As to the kind of experiment: Kinase panel assay (radiolabelled). The class given is biochemical. As to conditions: control GSK-2606414. The method, then:
Every inhibitory activity of tested compounds was measured by radiolabelled method of Reaction Biology Corp). The radiolabelled ATP ([γ-^33P] ATP) replaced a substrate with ^33P-phosphorylated substrate so that the activity of a kinase was measured from the radiolabelled phosphorylated substrate. Kinase panel assay was tested at 30 μM testing compounds with an ATP concentration of 10 μM and a substrate concentration of 10 μM. % Residual activity against GSK3β was measured at 10 uM compounds 1 and 2. […] Curve fits of control compounds were performed where the enzyme activities at the highest concentration of compounds were less than 65%. The concentration of DMSO was controlled and raw data, % kinase activity was calculated relative to DMSO controls.

Consider `O=C1C=CC2(C=C1)OCC(Cc1ccccc1)C(=O)N2c1ccccc1` (stereo not drawn) [1a], for which, on GSK3β, the remaining activity at 10 µM was determined as 85.8 ± 16.1%. Also, the IC50 in data set [1] is 540 nM. In the data set “MTT cell viability assay”, the viability at 24 h, 1 µM came to 95 ± 6.87% and the viability at 24 h, 5 µM was 74 ± 7%.
With `O=C1C=CC2(C=C1)OCC(Cc1cn(-c3cccnc3)nn1)C(=O)N2c1ccccc1` (stereo not drawn) [2b, 5-Phenyl-3-((1-(pyridin-3-yl)-1H-1,2,3-triazol-4-yl)methyl)-1-oxa-5-azaspiro[5.5]undeca-7,10-diene-4,9-dione], on GSK3β, the remaining activity at 10 µM was found to be 87.5 ± 0.6%. Further, the IC50 in data set [1] was 870 ± 110 nM. The viability at 24 h, 5 µM in the data set “MTT cell viability assay” is 120 ± 11%.
Consider `O=C1C=CC2(C=C1)OCC(Cc1cn(-c3ccc(F)cc3)nn1)C(=O)N2c1ccccc1` (stereo not drawn) [2c, 3-((1-(4-Fluorophenyl)-1H-1,2,3-triazol-4-yl)methyl)-5-phenyl-1-oxa-5-azaspiro[5.5]undeca-7,10-diene-4,9-dione], for which the remaining activity at 10 µM at GSK3β is 84.8 ± 5.3%. In data set [1], the IC50 was 780 ± 40 nM. For the same compound, in “MTT cell viability assay”, the viability at 24 h, 5 µM turned out to be 109 ± 13%.
For `O=C1C=CC2(C=C1)OCC(Cc1cn(-c3ccc(Br)cc3)nn1)C(=O)N2c1ccccc1` (stereo not drawn) [2e, 3-((1-(4-Bromophenyl)-1H-1,2,3-triazol-4-yl)methyl)-5-phenyl-1-oxa-5-azaspiro[5.5]undeca-7,10-diene-4,9-dione], the remaining activity at 10 µM on GSK3β was found to be 69.6 ± 5.1%. The IC50 in data set [1] turned out to be 670 ± 10 nM. In the data set “MTT cell viability assay”, the viability at 24 h, 1 µM stood at 106 ± 1.28% and the viability at 24 h, 5 µM came out at 93 ± 6%.
On to `O=C1C=CC2(C=C1)OCC(Cc1cn(-c3ccc(C(F)(F)F)cc3)nn1)C(=O)N2c1ccccc1` (stereo not drawn) [2f, 5-Phenyl-3-((1-(4-(trifluoromethyl)phenyl)-1H-1,2,3-triazol-4-yl)methyl)-1-oxa-5-azaspiro[5.5]undeca-7,10-diene-4,9-dione], for which the remaining activity at 10 µM at GSK3β was found to be 96.3 ± 16.5%. Besides, the IC50 in data set [1] was determined as 770 ± 20 nM. Besides, in the data set “MTT cell viability assay”, the viability at 24 h, 5 µM is 115 ± 3%.
The matching figures for `N#Cc1cccc(-n2cc(CC3COC4(C=CC(=O)C=C4)N(c4ccccc4)C3=O)nn2)c1` (stereo not drawn) [2g, 3-(4-((4,9-Dioxo-5-phenyl-1-oxa-5-azaspiro[5.5]undeca-7,10-dien-3-yl)methyl)-1H-1,2,3-triazol-1-yl)benzonitrile]: 41.8 ± 0.9%, 800 ± 130 nM and 128 ± 17%.
The matching figures for `COc1ccc(-n2cc(CC3COC4(C=CC(=O)C=C4)N(c4ccccc4)C3=O)nn2)cc1` (stereo not drawn) [2h, 3-((1-(4-Methoxyphenyl)-1H-1,2,3-triazol-4-yl)methyl)-5-phenyl-1-oxa-5-azaspiro[5.5]undeca-7,10-diene-4,9-dione]: 112 ± 4.5%, 760 ± 10 nM and 124 ± 7%.
For the compound `CSc1ccc(-n2cc(CC3COC4(C=CC(=O)C=C4)N(c4ccccc4)C3=O)nn2)cc1` (stereo not drawn) [2i, 3-((1-(4-(Methylthio)phenyl)-1H-1,2,3-triazol-4-yl)methyl)-5-phenyl-1-oxa-5-azaspiro[5.5]undeca-7,10-diene-4,9-dione], the remaining activity at 10 µM on GSK3β is 66.9 ± 11.4%. Besides, in data set [1], the IC50 stood at 980 ± 40 nM. Moreover, the viability at 24 h, 5 µM in the data set “MTT cell viability assay” stood at 121 ± 2%.
Consider `O=C1C=CC2(C=C1)OCC(Cc1cn(-c3cccc(Cc4ccccc4)c3)nn1)C(=O)N2c1ccccc1` (stereo not drawn) [2j, 3-((1-(3-Benzylphenyl)-1H-1,2,3-triazol-4-yl)methyl)-5-phenyl-1-oxa-5-azaspiro[5.5]undeca-7,10-diene-4,9-dione], for which the IC50 on GSK3β (ATP 1 µM, 10-dose, threefold dilution from 10 μM, read-out: IC50 of GSK3β activity) was determined as 2650 nM; at GSK3β (ATP 10 µM, 10-dose, threefold dilution from 10 μM, read-out: IC50 of GSK3β activity) it was 3530 nM; at GSK3β (ATP 50 µM, 10-dose, threefold dilution from 10 μM, read-out: IC50 of GSK3β activity), 3790 nM; on GSK3β (ATP 100 µM, 10-dose, threefold dilution from 10 μM, read-out: IC50 of GSK3β activity), 4040 nM; on GSK3β (ATP 200 µM, 10-dose, threefold dilution from 10 μM, read-out: IC50 of GSK3β activity), 3450 nM; in data set [1], 630 ± 10 nM. Moreover, the “dependence of GSK3β IC50 on ATP concentration” value at GSK3β (ATP 1, 10, 50, 100 and 200 µM) is “retained its IC50 activity regardless of the ATP concentration”. At GSK3β, the remaining activity at 10 µM was found to be 10.5 ± 2%. The viability at 24 h, 1 µM in “MTT cell viability assay” turned out to be 107 ± 6.88%. The viability at 24 h, 5 µM in the data set “MTT cell viability assay” is 74 ± 4%.
As to `O=C1C=CC2(C=C1)OCC(Cc1cn(-c3ccc(S(=O)(=O)C(F)(F)F)cc3)nn1)C(=O)N2c1ccccc1` (stereo not drawn) [2k, 5-Phenyl-3-((1-(4-((trifluoromethyl)sulfonyl)phenyl)-1H-1,2,3-triazol-4-yl)methyl)-1-oxa-5-azaspiro[5.5]undeca-7,10-diene-4,9-dione], the remaining activity at 10 µM on GSK3β was 35.1 ± 4.2%. Besides, the IC50 in data set [1] was found to be 770 ± 60 nM. In addition, the viability at 24 h, 5 µM in the data set “MTT cell viability assay” was 71 ± 3%.
For the compound `CC(=O)Nc1ccc(-n2cc(CC3COC4(C=CC(=O)C=C4)N(c4ccccc4)C3=O)nn2)cc1` (stereo not drawn) [2l, N-(4-(4-((4,9-Dioxo-5-phenyl-1-oxa-5-azaspiro[5.5]undeca-7,10-dien-3-yl)methyl)-1H-1,2,3-triazol-1-yl)phenyl)acetamide], the remaining activity at 10 µM at GSK3β was 122 ± 2.3%. Besides, in data set [1], the IC50 came to 930 ± 60 nM. For the same compound, in the data set “MTT cell viability assay”, the viability at 24 h, 5 µM is 109 ± 16%.
`COc1cc(OC)cc(-n2cc(CC3COC4(C=CC(=O)C=C4)N(c4ccccc4)C3=O)nn2)c1` (stereo not drawn) [2m, 3-((1-(3,5-B=Dimethoxyphenyl)-1H-1,2,3-triazol-4-yl)methyl)-5-phenyl-1-oxa-5-azaspiro[5.5]undeca-7,10-diene-4,9-dione]: at GSK3β, the remaining activity at 10 µM was determined as 114 ± 4.5%. In addition, in data set [1], the IC50 amounted to 1220 ± 300 nM. For the same compound, in the data set “MTT cell viability assay”, the viability at 24 h, 5 µM amounted to 108 ± 5%.
As to `COc1cc(-n2cc(CC3COC4(C=CC(=O)C=C4)N(c4ccccc4)C3=O)nn2)ccc1F` (stereo not drawn) [2n, 3-((1-(4-fluoro-3-methoxyphenyl)-1H-1,2,3-triazol-4-yl)methyl)-5-phenyl-1-oxa-5-azaspiro[5.5]undeca-7,10-diene-4,9-dione], the remaining activity at 10 µM at GSK3β is 85.6 ± 2%. In addition, the IC50 in data set [1] came out at 850 ± 40 nM. The viability at 24 h, 5 µM in the data set “MTT cell viability assay” amounted to 102 ± 8%.
In the case of `O=C1C=CC2(C=C1)OCC(Cc1cn(-c3ccc4c(c3)OCO4)nn1)C(=O)N2c1ccccc1` (stereo not drawn) [2o, 3-((1-(benzo[d][1,3]dioxol-5-yl)-1H-1,2,3-triazol-4-yl)methyl)-5-phenyl-1-oxa-5-azaspiro[5.5]undeca-7,10-diene-4,9-dione], at GSK3β, the remaining activity at 10 µM is 75 ± 0.7%. Moreover, in data set [1], the IC50 is 740 ± 80 nM. Besides, in the data set “MTT cell viability assay”, the viability at 24 h, 5 µM amounted to 89 ± 8%.
For `Cc1cc(=O)oc2cc(-n3cc(CC4COC5(C=CC(=O)C=C5)N(c5ccccc5)C4=O)nn3)ccc12` (stereo not drawn) [2p, 3-((1-(4-methyl-2-oxo-2H-chromen-7-yl)-1H-1,2,3-triazol-4-yl)methyl)-5-phenyl-1-oxa-5-azaspiro[5.5]undeca-7,10-diene-4,9-dione], the IC50 was 11400 nM at GSK3β (ATP 1 μM (Table 2), read-out: IC50 on GSK3β (converted)) and 850 ± 190 nM in data set [1]. For the same compound, the remaining activity at 10 µM on GSK3β amounted to 35.7 ± 3.7%. Moreover, in “MTT cell viability assay”, the viability at 24 h, 5 µM amounted to 97 ± 2%.
Consider `O=C1C=CC2(C=C1)OCC(Cc1cn(C34CC5CC(CC(C5)C3)C4)nn1)C(=O)N2c1ccccc1` [2q, 3-((1-((3R,5S)-adamantan-1-yl)-1H-1,2,3-triazol-4-yl)methyl)-5-phenyl-1-oxa-5-azaspiro[5.5]undeca-7,10-diene-4,9-dione], for which, on GSK3β, the remaining activity at 10 µM came to 71.6 ± 1.4%. The IC50 in data set [1] worked out at 780 ± 100 nM. In addition, the viability at 24 h, 5 µM in “MTT cell viability assay” was 87 ± 7%.
Consider `O=C1C=CC2(C=C1)OCC(Cc1cn(Cc3ccccc3)nn1)C(=O)N2c1ccccc1` (stereo not drawn) [2r, 3-((1-Benzyl-1H-1,2,3-triazol-4-yl)methyl)-5-phenyl-1-oxa-5-azaspiro[5.5]undeca-7,10-diene-4,9-dione], for which the remaining activity at 10 µM on GSK3β came out at 61.7 ± 13.8%. Besides, the IC50 in data set [1] turned out to be 650 ± 60 nM. Further, in “MTT cell viability assay”, the viability at 24 h, 1 µM was determined as 101.3 ± 0.67% and the viability at 24 h, 5 µM was 75 ± 11%.
For `Cn1cc(-c2ccc3c(c2)CCN3C(=O)Cc2cccc(C(F)(F)F)c2)c2c(N)ncnc21` [GSK-2606414, reference compound], at EIF2AK1, the concentration for half-maximal inhibition (IC50) was found to be 106 nM.
With `[H]/N=C(/NC)NCCC[C@H](N)C(=O)O` [L-NMMA, NG-mono-methyl-L-arginine, reference compound], the IC50 in data set [1] turned out to be 19600 ± 420 nM. Moreover, in “MTT cell viability assay”, the viability at 24 h, 1 µM turned out to be 101 ± 1.6% and the viability at 24 h, 5 µM worked out at 105 ± 4%.
On to `C#CCC1COC2(C=CC(=O)C=C2)N(c2ccccc2)C1=O` (stereo not drawn) [compound 7, 5-Phenyl-3-(prop-2-yn-1-yl)-1-oxa-5-azaspiro[5.5]undeca-7,10-diene-4,9-dione], for which the remaining activity at 10 µM on GSK3β was 55.7 ± 8.4%. In data set [1], the IC50 turned out to be 680 ± 70 nM. Moreover, in “MTT cell viability assay”, the viability at 24 h, 5 µM came out at 100 ± 24%.
